Reference: ChEMBL document CHEMBL1128516, “A check on rational drug design: crystal structure of a complex of human immunodeficiency virus type 1 protease with a novel gamma-turn mimetic inhibitor” (J Med Chem, 1995)

Target: Human immunodeficiency virus type 1 protease (Human immunodeficiency virus 1, UniProt Q72874)
Test: Competitive inhibitory activity against HIV-1 protease

COC(=O)C(NC(=O)C(NC(=O)[C@H](C)N1CCC(C(C)N(C)C(C)C(=O)O)=CC(Cc2ccccc2)C1=O)C(C)C)C(C)C (stereo partly specified)
Ki: 147 µM
